Assay results: patent US20190388425A1, “SUBSTITUTED IMIDAZOPYRIDINPYRIMIDINES” (Bayer Pharma Aktiengesellschaft, priority 2017, published 2019)

Molecular target: T1, human full-length MKNK1 (Homo sapiens, UniProt Q9BUB5, T385D)
T1 construct: GST (N); purchased Carna Biosciences 02-145; host or cells: insect cells (baculovirus expression system)
Assay: MKNK1 kinase high ATP assay (TR-FRET)
Assay type: biochemical
Conditions: TR-FRET, 2 mM ATP (high ATP), 15 min preincubation with enzyme, 30 min reaction at 22° C.; read-out: MKNK1 IC50
Summary of the method: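 Full-length human MKNK1 (T385D) preincubated 15 min at 22 °C with compound in HEPES pH 7.5/MgCl2/DTT buffer; reaction with 2 mM ATP (final) and 0.06 μM biotinylated peptide (final), 30 min at 22 °C.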

T1 sequence (Q9BUB5 1-424 isoform Q9BUB5-2 T344D): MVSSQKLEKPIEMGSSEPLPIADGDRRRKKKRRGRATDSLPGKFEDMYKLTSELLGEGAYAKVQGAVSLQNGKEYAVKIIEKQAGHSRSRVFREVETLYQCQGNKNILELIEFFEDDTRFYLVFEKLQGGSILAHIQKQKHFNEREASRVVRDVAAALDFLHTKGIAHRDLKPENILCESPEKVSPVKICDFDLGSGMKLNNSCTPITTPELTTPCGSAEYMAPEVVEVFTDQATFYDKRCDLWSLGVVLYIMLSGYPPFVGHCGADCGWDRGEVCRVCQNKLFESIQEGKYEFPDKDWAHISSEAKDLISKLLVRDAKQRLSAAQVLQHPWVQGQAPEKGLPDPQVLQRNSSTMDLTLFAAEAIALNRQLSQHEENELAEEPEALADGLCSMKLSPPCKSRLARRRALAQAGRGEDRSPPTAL

Structure (SMILES)	IC50 [nM]
C[C@@H]1CN(C(=O)[C@H]2CCc3c(sc4ncnc(Nc5cc(Cl)c6n(c5=O)C5(CCCCC5)NC6=O)c34)C2)CCN1C [Example 80, 8′-Chloro-6′-{[(7S)-7-{[(3R)-3,4-dimethylpiperazin-1-yl]carbonyl}-5,6,7,8-tetrahydro[1]benzothieno[2,3-d]pyrimidin-4-yl]amino}-2′H-spiro[cyclohexane-1,3′-imidazo[1,5-a]pyridine]-1′,5′-dione]	0.2
O=C1NC2(CCCCC2)n2c1c(Cl)cc(Nc1ncnc3sc4c(c13)CC[C@H](C(=O)N1C[C@H]3C[C@@H]1CO3)C4)c2=O [Example 81, 8′-Chloro-6′-({(7S)-7-[(1R,4R)-2-oxa-5-azabicyclo[2.2.1]hept-5-ylcarbonyl]-5,6,7,8-tetrahydro[1]benzothieno[2,3-d]pyrimidin-4-yl}amino)-2′H-spiro[cyclohexane-1,3′-imidazo[1,5-a]pyridine]-1′,5′-dione]	0.3
Cc1cc(Nc2ncnc3sc4c(c23)CC[C@H](C(=O)N2CC(C#N)C2)C4)c(=O)n2c1C(=O)N[C@]21CC[C@@](O)(C(F)(F)F)CC1 [Example 82, 1-{[(7S)-4-{[(cis)-4-Hydroxy-8′-methyl-1′,5′-dioxo-4-(trifluoromethyl)-1′,5′-dihydro-2′H-spiro[cyclohexane-1,3′-imidazo[1,5-a]pyridin]-6′-yl]amino}-5,6,7,8-tetrahydro[1]benzothieno[2,3-d]pyrimidin-7-yl]carbonyl}azetidine-3-carbonitrile]	1.5
Cc1cc(Nc2ncnc3sc4c(c23)CC[C@H](C(=O)N2CCN(C)[C@H](C)C2)C4)c(=O)n2c1C(=O)N[C@]21CC[C@@](O)(C(F)(F)F)CC1 [Example 83, (cis)-6′-{[(7S)-7-{[(3R)-3,4-Dimethylpiperazin-1-yl]carbonyl}-5,6,7,8-tetrahydro[1]benzothieno[2,3-d]pyrimidin-4-yl]amino}-4-hydroxy-8′-methyl-4-(trifluoromethyl)-2′H-spiro[cyclohexane-1,3′-imidazo[1,5-a]pyridine]-1′,5′-dione]	1.5

Second part, the compound after the results:

IC50 [nM]	Structure (SMILES)
0.3	C[C@@H]1COCCN1C(=O)[C@H]1CCc2c(sc3ncnc(Nc4cc(Cl)c5n(c4=O)C4(CCCCC4)NC5=O)c23)C1 [Example 79, 8′-Chloro-6′-{[(7S)-7-{[(3R)-3-methylmorpholin-4-yl]carbonyl}-5,6,7,8-tetrahydro[1]benzothieno[2,3-d]pyrimidin-4-yl]amino}-2′H-spiro[cyclohexane-1,3′-imidazo[1,5-a]pyridine]-1′,5′-dione]
1	O=C1NC2(CCCC2)n2c1c(Cl)cc(Nc1ncnc3sc4c(c13)CC[C@H](C(=O)O)C4)c2=O [Example 84, (7S)-4-[(8′-Chloro-1′,5′-dioxo-1′,5′-dihydro-2′H-spiro[cyclopentane-1,3′-imidazo[1,5-a]pyridin]-6′-yl)amino]-5,6,7,8-tetrahydro[1]benzothieno[2,3-d]pyrimidine-7-carboxylic acid]
0.2	NC(=O)[C@H]1CCc2c(sc3ncnc(Nc4cc(Cl)c5n(c4=O)C4(CCCC4)NC5=O)c23)C1 [Example 85, (7S)-4-[(8′-Chloro-1′,5′-dioxo-1′,5′-dihydro-2′H-spiro[cyclopentane-1,3′-imidazo[1,5-a]pyridin]-6′-yl)amino]-5,6,7,8-tetrahydro[1]benzothieno[2,3-d]pyrimidine-7-carboxamide]
0.1	CN(C)C(=O)[C@H]1CCc2c(sc3ncnc(Nc4cc(Cl)c5n(c4=O)C4(CCCC4)NC5=O)c23)C1 [Example 86, (7S)-4-[(8′-Chloro-1′,5′-dioxo-1′,5′-dihydro-2′H-spiro[cyclopentane-1,3′-imidazo[1,5-a]pyridin]-6′-yl)amino]-N,N-dimethyl-5,6,7,8-tetrahydro[1]benzothieno[2,3-d]pyrimidine-7-carboxamide]
0.2	O=C1NC2(CCCC2)n2c1c(Cl)cc(Nc1ncnc3sc4c(c13)CC[C@H](C(=O)N1CCC1)C4)c2=O [Example 87, 6′-{[(7S)-7-(Azetidine-1-carbonyl)-5,6,7,8-tetrahydro[1]benzothieno[2,3-d]pyrimidin-4-yl]amino}-8′-chloro-2′H-spiro[cyclopentane-1,3′-imidazo[1,5-a]pyridine]-1′,5′-dione]
